Among the data in patent US20230265151A1, “GIP/GLP1 CO-AGONIST COMPOUNDS” (priority 2020, published 2023) are EC50 and Emax values, retold here.

Holding throughout (format): cell-based
One assay concerns the target T1, hGCGR (Homo sapiens, UniProt P47871).
T1 construct: expressed in transfected cells
Description: Functional cAMP formation (HTRF) in HEK-293 clonal cells expressing hGCGR, 0.1% bovine casein, without or with 1.0% human serum albumin. Particulars: 37° C. The method in brief:
(§1)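 Cells were stimulated with peptide for 30 min at 37° C, then intracellular cAMP was measured by competitive HTRF (665/620 nm ratio) and converted to nM using a cAMP standard curve. Relative EC50 and Emax came from four-parameter logistic fits of percent maximal response against peptide concentration.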
Background: Changes in cAMP serve as a functional read-out for many G protein-coupled receptors.

Another assay addresses T2, hGIPR (Homo sapiens, UniProt P48546).
T2 construct: expressed in transfected cells
T2 sequence (P48546 22-466): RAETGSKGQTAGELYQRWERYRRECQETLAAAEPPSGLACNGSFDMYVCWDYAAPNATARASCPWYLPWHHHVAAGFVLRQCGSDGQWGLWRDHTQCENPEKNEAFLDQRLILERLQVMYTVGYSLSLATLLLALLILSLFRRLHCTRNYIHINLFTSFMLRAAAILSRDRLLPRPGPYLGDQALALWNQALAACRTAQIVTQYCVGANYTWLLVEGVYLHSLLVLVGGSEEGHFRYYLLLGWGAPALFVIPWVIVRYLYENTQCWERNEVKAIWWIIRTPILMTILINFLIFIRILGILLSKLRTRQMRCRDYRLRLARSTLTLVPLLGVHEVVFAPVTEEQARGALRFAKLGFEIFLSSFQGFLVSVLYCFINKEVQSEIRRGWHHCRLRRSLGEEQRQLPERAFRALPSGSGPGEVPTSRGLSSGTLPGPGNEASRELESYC
Description: Functional cAMP formation (HTRF) in HEK-293 clonal cells expressing hGIPR, 0.1% bovine casein, without or with 1.0% human serum albumin. Particulars: for Emax: percent of maximal response to GIP(1-42)NH2; for EC50: cAMP, 0.1% bovine casein (no human serum albumin), geometric mean. An outline of the steps: as §1

For the next assay, the target named is hGLP-1R (Homo sapiens, UniProt P43220). Description: Functional cAMP formation (HTRF) in HEK-293 clonal cells expressing hGLP-1R, 0.1% bovine casein, without or with 1.0% human serum albumin. On the set-up: expressed in transfected cells. To be noted: for Emax: percent of maximal response to GLP-1(7-36)NH2. The method in brief: as §1
Chain of hGLP-1R (P43220 24-463): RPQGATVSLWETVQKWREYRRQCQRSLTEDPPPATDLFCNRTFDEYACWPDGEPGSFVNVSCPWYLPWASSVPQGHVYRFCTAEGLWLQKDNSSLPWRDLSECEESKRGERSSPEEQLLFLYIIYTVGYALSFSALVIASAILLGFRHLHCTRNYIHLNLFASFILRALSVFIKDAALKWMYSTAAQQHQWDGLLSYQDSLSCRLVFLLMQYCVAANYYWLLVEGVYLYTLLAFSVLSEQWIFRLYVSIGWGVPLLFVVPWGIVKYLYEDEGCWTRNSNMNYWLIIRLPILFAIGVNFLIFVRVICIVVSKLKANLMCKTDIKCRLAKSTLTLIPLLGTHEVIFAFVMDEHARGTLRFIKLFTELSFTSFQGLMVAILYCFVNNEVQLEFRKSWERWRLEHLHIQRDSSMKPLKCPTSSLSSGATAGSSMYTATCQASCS
Where [1] appears, read: cAMP, 0.1% bovine casein (no human serum albumin), geometric mean, read-out: hGCGR EC50, nM (SEM, n).
Where [2] appears, read: 37° C., read-out: hGIPR EC50, nM (SEM, n).
Setting [3] is: HEK293, cAMP, 37° C., 0.1% bovine casein, arithmetic mean, read-out: hGLP-1R Emax, % ± SEM.
Where [4] appears, read: cAMP, 37° C., 0.1% bovine casein (no human serum albumin), geometric mean, read-out: hGLP-1R EC50, nM (SEM, n).

Broadly, the EC50 is the concentration at which the effect is half-maximal. For orientation: Emax means the maximal effect, on the per cent scale that the assay sets.

Structures are written as SMILES. Read-outs that look alike come from different tables or passages of the source. *1 amine or outer side, *2 acyl side, *3 side chain or, on linkers, in order; H or OH if unused. Where a SMILES comes first, the peptide text is derived from it. Side-chain parts run from the residue outwards. [ ]: non-standard residue; d: D form. The star is where a group is joined. Decanoyl(10-(4-HOOC-PhO)) = O=C(O)c1ccc(OCCCCCCCCCC(=O)*)cc1; αMePhe(2-F) = C[C@](N)(Cc1ccccc1F)C(=O)O; γGlu = O=C(O)[C@H](CCC(=O)[*:2])N[*:1]; αMeY = C[C@](N)(Cc1ccc(O)cc1)C(=O)O; αMeL = CC(C)C[C@](C)(N)C(=O)O; Orn = NCCC[C@H](N)C(=O)O; AEEA = NCCOCCOCC(=O)O; Aib = CC(C)(N)C(=O)O

T1 sequence (P47871 26-477): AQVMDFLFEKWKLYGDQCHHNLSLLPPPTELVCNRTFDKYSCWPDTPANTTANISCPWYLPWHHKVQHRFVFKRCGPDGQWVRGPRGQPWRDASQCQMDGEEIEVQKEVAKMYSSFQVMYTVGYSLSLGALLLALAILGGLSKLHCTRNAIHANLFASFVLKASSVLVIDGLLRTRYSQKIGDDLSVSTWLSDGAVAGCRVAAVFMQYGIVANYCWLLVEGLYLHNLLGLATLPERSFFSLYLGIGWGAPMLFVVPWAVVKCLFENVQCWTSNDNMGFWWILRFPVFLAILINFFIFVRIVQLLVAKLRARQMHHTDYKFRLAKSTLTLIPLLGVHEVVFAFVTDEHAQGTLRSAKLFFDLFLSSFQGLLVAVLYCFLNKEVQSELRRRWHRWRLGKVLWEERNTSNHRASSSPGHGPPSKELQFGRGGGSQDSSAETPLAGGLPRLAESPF

As for `CC[C@H](C)[C@H](NC(=O)[C@H](CC(C)C)NC(=O)[C@](C)(Cc1ccc(O)cc1)NC(=O)[C@@H](CCC(=O)O)NC(=O)[C@@H](NC(=O)[C@H](Cc1ccccc1)NC(=O)[C@H](CCC(=O)O)NC(=O)C(C)(C)NC(=O)[C@H](CCC(N)=O)NC(=O)[C@H](C)NC(=O)[C@H](CCCCNC(=O)COCCOCCNC(=O)COCCOCCNC(=O)CC[C@H](NC(=O)CCCCCCCCCOc1ccc(C(=O)O)cc1)C(=O)O)NC(=O)[C@H](CCCN)NC(=O)[C@H](CC(=O)O)NC(=O)[C@H](CC(C)C)NC(=O)[C@](C)(CC(C)C)NC(=O)[C@@H](NC(=O)C(C)(C)NC(=O)[C@@H](NC(=O)[C@H](CC(=O)O)NC(=O)[C@H](CO)NC(=O)[C@@H](NC(=O)[C@](C)(Cc1ccccc1F)NC(=O)[C@@H](NC(=O)CNC(=O)[C@H](CCC(=O)O)NC(=O)C(C)(C)NC(=O)[C@@H](N)Cc1ccc(O)cc1)[C@@H](C)O)[C@@H](C)O)C(C)C)[C@@H](C)CC)[C@@H](C)CC)C(=O)N[C@@H](CCC(=O)O)C(=O)NCC(=O)NCC(=O)N1CCC[C@H]1C(=O)N[C@@H](CO)C(=O)N[C@@H](CO)C(=O)NCC(=O)N[C@@H](C)C(=O)N1CCC[C@H]1C(=O)N1CCC[C@H]1C(=O)N1CCC[C@H]1C(=O)N[C@@H](CO)C(=O)N[C@@H](CCCCNC(=O)COCCOCCNC(=O)COCCOCCNC(=O)CC[C@H](NC(=O)CCCCCCCCCOc1ccc(C(=O)O)cc1)C(=O)O)C(N)=O` [Example 380] (H-Y[Aib]EGT[αMePhe(2-F)]TSDV[Aib]I[αMeL]LD[Orn]K([AEEA-AEEA-γGlu-Decanoyl(10-(4-HOOC-PhO))])AQ[Aib]EFI[dE][αMeY]LIEGGPSSGAPPPSK([AEEA-AEEA-γGlu-Decanoyl(10-(4-HOOC-PhO))])-NH2), the EC50 on hGCGR (hGCGR EC50, nM (SEM, n), cAMP, 0.1% bovine casein (no human serum albumin), geometric mean) was above 9950 nM; on hGCGR (hGCGR EC50, nM (SEM, n), cAMP, 0.1% bovine casein and 1.0% human serum albumin, geometric mean (SEM, n)), above 9950 nM; at hGIPR (hGIPR EC50, nM (SEM, n), 37° C.), 0.0209 nM; on hGLP-1R (hGLP-1R EC50, nM (SEM, n), cAMP, 37° C., 0.1% bovine casein (no human serum albumin), geometric mean) it was 0.176 nM; at hGLP-1R (hGLP-1R EC50, nM (SEM, n), cAMP, 37° C., 0.1% bovine casein and 1.0% human serum albumin, geometric mean (SEM, n)), 28 nM. The Emax amounted to 93.5% at hGIPR (HEK293, read-out: hGIPR Emax, % ± SEM, cAMP, 37° C., 0.1% bovine casein and 1.0% human serum albumin); 100% on hGIPR (HEK293, read-out: hGIPR Emax, % ± SEM, cAMP, 37° C., 0.1% bovine casein, arithmetic mean); 94.5% on hGLP-1R (HEK293, read-out: hGLP-1R Emax, % ± SEM, cAMP, 37° C., 0.1% bovine casein and 1.0% human serum albumin); 96.2% at hGLP-1R (HEK293, read-out: hGLP-1R Emax, % ± SEM, cAMP, 37° C., 0.1% bovine casein, arithmetic mean).

On to `CC[C@H](C)[C@H](NC(=O)[C@H](CCCN)NC(=O)[C@H](CC(=O)O)NC(=O)[C@H](CC(C)C)NC(=O)[C@](C)(CC(C)C)NC(=O)[C@@H](NC(=O)[C@H](CO)NC(=O)[C@H](Cc1ccc(OC)cc1)NC(=O)[C@H](CC(=O)O)NC(=O)[C@H](CO)NC(=O)[C@@H](NC(=O)[C@](C)(Cc1ccccc1F)NC(=O)[C@@H](NC(=O)CNC(=O)[C@H](CCC(=O)O)NC(=O)C(C)(C)NC(=O)[C@@H](N)Cc1ccc(O)cc1)[C@@H](C)O)[C@@H](C)O)[C@@H](C)CC)C(=O)N[C@@H](C)C(=O)N[C@@H](CCC(N)=O)C(=O)NC(C)(C)C(=O)N[C@@H](CCCCNC(=O)COCCOCCNC(=O)COCCOCCNC(=O)CC[C@H](NC(=O)CCCCCCCCCCCCC(=O)O)C(=O)O)C(=O)N[C@@H](Cc1ccccc1)C(=O)N[C@H](C(=O)N[C@H](CCC(=O)O)C(=O)N[C@@](C)(Cc1ccc(O)cc1)C(=O)N[C@@H](CC(C)C)C(=O)N[C@H](C(=O)N[C@@H](CCCCNC(=O)COCCOCCNC(=O)COCCOCCNC(=O)CC[C@H](NC(=O)CCCCCCCCCCCCC(=O)O)C(=O)O)C(=O)NCC(=O)NCC(=O)N1CCC[C@H]1C(=O)N[C@@H](CO)C(=O)N[C@@H](CO)C(=O)NCC(=O)N[C@@H](C)C(=O)N1CCC[C@H]1C(=O)N1CCC[C@H]1C(=O)N1CCC[C@H]1C(=O)N[C@@H](CO)C(N)=O)[C@@H](C)CC)[C@@H](C)CC` [Example 263], for which the EC50 was above 9950 nM at hGCGR (0.1% bovine casein and 1.0% human serum albumin, geometric mean, read-out: hGCGR EC50, nM (SEM, n)); above 9950 nM at hGCGR (setting [1]); 0.0214 nM on hGIPR (setting [2]); 56.7 nM at hGLP-1R (0.1% bovine casein and 1.0% human serum albumin, 37° C., geometric mean, read-out: hGLP-1R EC50, nM (SEM, n)); 0.294 nM at hGLP-1R (setting [4]). The Emax on hGIPR (HEK293, 0.1% bovine casein and 1.0% human serum albumin, 37° C., read-out: hGIPR Emax, % ± SEM) is 72.7%; on hGIPR (HEK293, cAMP, 37° C., 0.1% bovine casein, arithmetic mean, read-out: hGIPR Emax, % ± SEM), 88.6%; on hGLP-1R (HEK293, 0.1% bovine casein and 1.0% human serum albumin, 37° C., read-out: hGLP-1R Emax, % ± SEM), 95.8%; on hGLP-1R (setting [3]), 98.5%.

`CC[C@H](C)[C@H](NC(=O)[C@H](CC(C)C)NC(=O)[C@](C)(Cc1ccc(O)cc1)NC(=O)[C@H](CCCCNC(=O)CCCCCCCNC(=O)COCCOCCNC(=O)CC[C@H](NC(=O)CCCCCCCCCCCCC(=O)O)C(=O)O)NC(=O)[C@@H](NC(=O)[C@H](Cc1ccccc1)NC(=O)[C@H](CCCN)NC(=O)C(C)(C)NC(=O)[C@H](CCC(N)=O)NC(=O)[C@H](C)NC(=O)[C@H](CCC(N)=O)NC(=O)[C@H](CCCN)NC(=O)[C@H](CC(=O)O)NC(=O)[C@H](CC(C)C)NC(=O)[C@](C)(CC(C)C)NC(=O)[C@@H](NC(=O)C(C)(C)NC(=O)[C@H](Cc1ccncc1)NC(=O)[C@H](CC(=O)O)NC(=O)[C@H](CO)NC(=O)[C@@H](NC(=O)[C@](C)(Cc1ccccc1F)NC(=O)[C@@H](NC(=O)CNC(=O)[C@H](CCC(=O)O)NC(=O)C(C)(C)NC(=O)[C@@H](N)Cc1ccc(O)cc1)[C@@H](C)O)[C@@H](C)O)[C@@H](C)CC)[C@@H](C)CC)C(=O)N[C@@H](CCCCNC(=O)CCCCCCCNC(=O)COCCOCCNC(=O)CC[C@H](NC(=O)CCCCCCCCCCCCC(=O)O)C(=O)O)C(=O)NCC(=O)NCC(=O)N1CCC[C@H]1C(=O)N[C@@H](CO)C(=O)N[C@@H](CO)C(=O)NCC(=O)N[C@@H](C)C(=O)N1CCC[C@H]1C(=O)N1CCC[C@H]1C(=O)N1CCC[C@H]1C(=O)N[C@@H](CO)C(N)=O` [Example 452]: the EC50 on hGCGR (setting [1]) was above 9950 nM; on hGCGR (cAMP, 0.1% bovine casein and 1.0% human serum albumin, geometric mean (SEM, n), read-out: hGCGR EC50, nM (SEM, n)), above 9950 nM; on hGIPR (setting [2]), 0.0192 nM; at hGLP-1R (setting [4]) it was 0.259 nM. The Emax at hGIPR (HEK293, cAMP, 37° C., 0.1% bovine casein and 1.0% human serum albumin, read-out: hGIPR Emax, % ± SEM) stood at 100%; on hGLP-1R (setting [3]), 117%.
